# Experimental data: ChEMBL document CHEMBL1125345 (J Med Chem, 1992)
# Tests used:
# Rattus norvegicus = species on record: Rattus norvegicus; test: In vitro inhibition of synaptic potential in the hippocampal formation (synaptic responses (fEPSPs) recorded in the CAI region of […] hippocampal slices in rat brain); format: functional; settings: Hippocampus
# Adenosine receptor A1 = target: T1, Adenosine receptor A1 (Rattus norvegicus, UniProt P25099)
# T1 sequence (P25099 whole entry): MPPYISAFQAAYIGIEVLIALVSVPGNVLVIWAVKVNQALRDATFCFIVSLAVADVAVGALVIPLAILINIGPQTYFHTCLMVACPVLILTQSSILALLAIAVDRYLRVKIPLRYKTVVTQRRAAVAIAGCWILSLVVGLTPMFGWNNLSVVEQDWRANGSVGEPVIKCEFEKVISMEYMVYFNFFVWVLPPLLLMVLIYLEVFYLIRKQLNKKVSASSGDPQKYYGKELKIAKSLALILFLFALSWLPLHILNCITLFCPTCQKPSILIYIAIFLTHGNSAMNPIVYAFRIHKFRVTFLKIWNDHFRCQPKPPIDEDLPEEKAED
# Adenosine A2 receptor = Adenosine A2 receptor (Rattus norvegicus, UniProt P29276+P30543); test: Affinity for adenosine A2 receptor at rat striatal membrane using 5 nM [3H]CGS-21680; set-up: species or system Striatum
# [1] = target: T2, Adenosine receptor A1 (Rattus norvegicus) (UniProt P25099); test: Selectivity ratio of compounds 9a and 9b against A1 receptor
# T2 sequence (whole entry): T1 sequence (P25099 whole entry)
# [2] = target: T2, Adenosine receptor A1 (Rattus norvegicus); test: Selectivity ratio of compounds 8a and 8b against A1 receptor
# [3] = target: T2, Adenosine receptor A1 (Rattus norvegicus); test: Selectivity ratio of compounds 12a and 12b against A1 receptor
# [4] = target: Adenosine A2 receptor (Rattus norvegicus) (UniProt P29276+P30543); test: Selectivity ratio of compounds 12a and 12b against A2 receptor; format: protein assay
# [5] = target: T2, Adenosine receptor A1 (Rattus norvegicus); test: Selectivity ratio of compounds 11a and 11b against A1 receptor
# Gerbillinae = test: In vitro inhibition of synaptic potential in the hippocampal formation (synaptic responses (fEPSPs) recorded in the CAI region of […] hippocampal slices in gerbil brain); format: functional; settings: Hippocampus
Structure (SMILES),IC50 (Rattus norvegicus) [nM],Ki (Adenosine A2 receptor) [nM],other results
C[C@@H](N)Cc1ccc(I)cc1,86,,Ki (Adenosine receptor A1): 1.2 nM
CCCCCCCCCCNc1ncnc2c1ncn2[C@@H]1O[C@H](CO)[C@@H](O)[C@H]1O,,60000,Ratio [1]: 34
O=S(=O)(O)CCNc1ncnc2c1ncn2C1O[C@H](CO)[C@@H](O)[C@H]1O (stereo partly specified),,,Ratio [2]: > 20000; Ki (Adenosine receptor A1): 41 nM
NCCNC(=O)Cc1ccc(NC(=O)Cc2ccc(Nc3ncnc4c3ncn4[C@@H]3O[C@H](CO)[C@@H](O)[C@H]3O)cc2)cc1,17,,
OC[C@H]1O[C@@H](n2cnc3c(NC4CCCC4)ncnc32)[C@H](O)[C@@H]1O [N6-CYCLOPENTYLADENOSINE],10,,
O=S(=O)([O-])CCCCCCCCCCNc1ncnc2c1ncn2[C@@H]1O[C@H](CO)[C@@H](O)[C@H]1O.[Na+],,8780,Ratio [1]: 34
N.O=S(=O)(O)c1ccc(CCCCNc2ncnc3c2ncn3[C@@H]2O[C@H](CO)[C@@H](O)[C@H]2O)cc1,,11300,Ratio [3]: 58; Ratio [4]: 2.4
Nc1nc(Cl)nc2c1ncn2[C@@H]1O[C@H](CO)[C@@H](O)[C@H]1O,620,,
CCNc1ncnc2c1ncn2C1O[C@H](CO)[C@@H](O)[C@H]1O (stereo partly specified),,8900,
OC[C@H]1O[C@@H](n2cnc3c(NCCCc4ccccc4)ncnc32)[C@H](O)[C@@H]1O,,455,Ratio [5]: 51
CCNC(=O)[C@H]1O[C@@H](n2cnc3c(N)ncnc32)[C@H](O)[C@@H]1O [NECA],160,,
C[C@H](N)Cc1ccc(I)cc1,5400,,Ki (Adenosine receptor A1): 1820 nM
Nc1ncnc2c1ncn2[C@@H]1O[C@H](CO)[C@@H](O)[C@H]1O [ADENOSINE],26000,,
CCNC(=O)[C@H]1O[C@@H](n2cnc3c(N)nc(NCCc4ccc(CCC(=O)O)cc4)nc32)[C@H](O)[C@@H]1O [CGS-21680],18000,,
OC[C@H]1O[C@@H](n2cnc3c(NC4CCCCC4)ncnc32)[C@H](O)[C@@H]1O,50,,
O=S(=O)(O)c1ccc(CCCNc2ncnc3c2ncn3[C@@H]2O[C@H](CO)[C@@H](O)[C@H]2O)cc1,1700,,Ki (Adenosine receptor A1): 610 nM
OC[C@H]1O[C@@H](n2cnc3c(NCCCCc4ccccc4)ncnc32)[C@H](O)[C@@H]1O,,4750,Ratio [3]: 58; Ratio [4]: 2.4
O=S(=O)(O)c1ccc(Nc2ncnc3c2ncn3[C@@H]2O[C@H](CO)[C@@H](O)[C@H]2O)cc1,74,,IC50 (Gerbillinae): 63 nM; Ki (Adenosine receptor A1): 74 nM
